The test system of the assay is HCV replication. The assay is described as follows: HCV replicon assay (luciferase), ET (Huh-lucubineo-ET) cell line. It is filed as cell-based. The following applies: Hepatitis C virus; tested at 10 μM; ET (Huh-lucubineo-ET) replicon cells; luciferase activity 48-72 hours; relative to no compound control. As for the experimental part:
A cell line, ET (Huh-lucubineo-ET) was used for screening of compounds of the present invention for inhibiting HCV replication. The ET cell line was stably transfected with RNA transcripts harboring a I389luc-ubi-neo/NS3-3′/ET; replicon with firefly luciferase-ubiquitin-neomycin phosphotransferase fusion protein and EMCV-IRES driven NS3-5B polyprotein containing the cell culture adaptive mutations (E1202G; T1280I; K1846T) (Krieger at al, 2001 and unpublished). The ET cells were grown in DMEM (Dulbeco's Modified Eagle's Medium), supplemented with 10% fetal calf serum, 2 mM Glutamine, Penicillin (100 IU/mL)/Streptomycin (100 μg/mL), 1× nonessential amino acids, and 250 μg/mL G418 (“Geneticin”). They were all available through Life Technologies (Bethesda, Md.). The cells were plated at 0.5-1.0×10^4 cells/well in the 96 well plates and incubated for 24 hrs before adding testing compounds. Then the compounds were added to the cells to achieve a final concentration of 0.1 nM to 50 μM and a final DMSO concentration of 0.5%. Luciferase activity were measured 48-72 hours later by adding a lysis buffer and the substrate (Catalog number Glo-lysis buffer E2661 and Bright-Glo luciferase system E2620 Promega, Madison, Wis.). Cells should not be too confluent during the assay. Percent inhibition of replication was plotted relative to no compound control. Under the same condition, cytotoxicity of the compounds was determined using cell proliferation reagent, WST-1 (Roche, Germany). The compounds showing antiviral activities, but no significant cytotoxicities were chosen to determine EC50 and TC50. For these determinations, a 10 point 2-fold serial dilution for each compound was used, which spans a concentration range of 1000 fold. EC50 and similarly TC50 values were calculated by fitting % inhibition at each concentration to the following equation:
% inhibition=100%/[(IC50/[I])^b+1]
where b is Hill's coefficient.
In some preferred embodiments compounds of Formula I will have a % inhibition of at least 20% when tested at 10 μM. In other embodiments the compounds of Formula I will have a % inhibition of at least 50% when tested at 10 μM.
`O=C(Cc1ccc(-c2ccc([C@@H]3CCCN3C(=O)OCc3ccccc3)cc2)cc1)NC1CC1` (stereo in doubt) [Compound 4002, 2-(4′-Cyclopropylcarbamoylmethyl-biphenyl-4-yl)-pyrrolidine-1-carboxylic acid benzyl ester] had an inhibition at 10 µM of 33.3%.

`O=C(Cc1cccc(-c2ccc([C@@H]3CCCN3C(=O)OCc3ccccc3)cc2)c1)NC1CC1` (stereo in doubt) [Compound 4043, 2-(3′-Cyclopropylcarbamoylmethyl-biphenyl-4-yl)-pyrrolidine-1-carboxylic acid benzyl ester] came in with an inhibition at 10 µM of 40%.

`O=C(NC1CC1)c1ccc(-c2ccc([C@@H]3CCCN3C(=O)OCc3ccccc3)cc2)cc1` (stereo in doubt) [Compound 4044, 2-(4′-Cyclopropylcarbamoyl-biphenyl-4-yl)-pyrrolidine-1-carboxylic acid benzyl ester] came in with an inhibition at 10 µM of 53.1%.

Compound `O=C(NC1CC1)c1cccc(-c2ccc3nc([C@@H]4CCCN4C(=O)OCc4ccccc4)[nH]c3c2)c1` [Compound 4001, (S)-2-[6-(3-Cyclopropylcarbamoyl-phenyl)-1H-benzoimidazol-2-yl]-pyrrolidine-1-carboxylic acid benzyl ester] returned an inhibition at 10 µM of 94.5%.

As for `O=C(Cc1cccc(-c2ccc3nc([C@@H]4CCCN4C(=O)OCc4ccccc4)[nH]c3c2)c1)NC1CC1` [Compound 4003, (S)-2-[6-(3-Cyclopropylcarbamoylmethyl-phenyl)-1H-benzoimidazol-2-yl]-pyrrolidine-1-carboxylic acid benzyl ester], the inhibition at 10 µM worked out at 97%.

With `O=C(Nc1ccc(-c2cccc(C#C[C@@H]3CCCN3C(=O)OCc3ccccc3)c2)cc1)C1CC1` [Compound 4004, (S)-2-[4′-(Cyclopropanecarbonyl-amino)-biphenyl-3-ylethynyl]-pyrrolidine-1-carboxylic acid benzyl ester], the inhibition at 10 µM was determined as 81.8%.

Compound `O=C(OCc1ccccc1)N1CCC[C@H]1c1nc2ccc(-c3ccc4[nH]ccc4c3)cc2s1` [Compound 4005, (S)-2-[6-(1H-Indol-5-yl)-benzothiazol-2-yl]-pyrrolidine-1-carboxylic acid benzyl ester] came in with an inhibition at 10 µM of 1.7%.

`O=C(OCc1ccccc1)N1CCC[C@H]1c1nc2ccc(-c3ccccc3)cc2[nH]1` [Compound 4007, (S)-2-(6-Phenyl-1H-benzoimidazol-2-yl)-pyrrolidine-1-carboxylic acid benzyl ester]: testing at 10 µM gave an inhibition of 4.4%.

As to `Nc1ccc(-c2ccc3nc([C@@H]4CCCN4C(=O)OCc4ccccc4)[nH]c3c2)cc1` [Compound 4008, (S)-2-[6-(4-Amino-phenyl)-1H-benzoimidazol-2-yl]-pyrrolidine-1-carboxylic acid benzyl ester], the inhibition at 10 µM is 13.6%.

`O=C(OCc1ccccc1)N1CCC[C@H]1c1nc2ccc(-c3ccc4ccccc4c3)cc2[nH]1` [Compound 4011, (S)-2-(6-Naphthalen-2-yl-1H-benzoimidazol-2-yl)-pyrrolidine-1-carboxylic acid benzyl ester] came in with an inhibition at 10 µM of 87%.

The compound `O=C(OCc1ccccc1)N1CCC[C@H]1c1nc2ccc(-c3cccc4cc[nH]c34)cc2[nH]1` [Compound 4014, (S)-2-[6-(1H-Indol-7-yl)-1H-benzoimidazol-2-yl]-pyrrolidine-1-carboxylic acid benzyl ester] had an inhibition at 10 µM of 12.7%.

Compound `COc1ccc(-c2ccc3nc([C@@H]4CCCN4C(=O)OCc4ccccc4)[nH]c3c2)c(OC)c1` [Compound 4017, (S)-2-[6-(2,4-Dimethoxy-phenyl)-1H-benzoimidazol-2-yl]-pyrrolidine-1-carboxylic acid benzyl ester] registered an inhibition at 10 µM of 42.4%.

Compound `O=C(NC1CC1)c1ccc(-c2ccc3nc([C@@H]4CCCN4C(=O)OCc4ccccc4)oc3c2)cc1` [Compound 4019, (S)-2-[6-(4-Cyclopropylcarbamoyl-phenyl)-benzooxazol-2-yl]-pyrrolidine-1-carboxylic acid benzyl ester] gave an inhibition at 10 µM of 50.5%.

With `O=C(NC1CC1)c1ccc(-c2ccc3nc([C@@H]4CCCN4C(=O)OCc4ccccc4)[nH]c3c2)cc1` [Compound 4020, (S)-2-[6-(4-Cyclopropylcarbamoyl-phenyl)-1H-benzoimidazol-2-yl]-pyrrolidine-1-carboxylic acid benzyl ester], the inhibition at 10 µM turned out to be 96.1%.

`O=C(Cc1ccc(-c2ccc3nc([C@@H]4CCCN4C(=O)OCc4ccccc4)[nH]c3c2)cc1)NC1CC1` [Compound 4021, (S)-2-[6-(4-Cyclopropylcarbamoylmethyl-phenyl)-1H-benzoimidazol-2-yl]-pyrrolidine-1-carboxylic acid benzyl ester]: the inhibition at 10 µM turned out to be 64.5%.

For `O=C(NC1CC1)c1ccc(-c2ccc3nc([C@@H]4CCCN4C(=O)OCc4ccccc4)sc3c2)cc1` [Compound 4022, 2-[6-(4-Cyclopropylcarbamoyl-phenyl)-benzothiazol-2-yl]-pyrrolidine-1-carboxylic acid benzylester], the inhibition at 10 µM was found to be 14.9%.

`O=C(Cc1ccc(-c2cccc(C#C[C@@H]3CCCN3C(=O)OCc3ccccc3)c2)cc1)NC1CC1` [Compound 4024, 2-(4′-Cyclopropylcarbamoyl-methyl-biphenyl-3-ylethynyl)-pyrrolidine-1-carboxylic acid benzylester] returned an inhibition at 10 µM of 45.9%.

`O=C(OCc1ccccc1)N1CCC[C@H]1c1nc2ccc(-c3cccs3)cc2[nH]1` [Compound 4029, (S)-2-(6-Thiophen-2-yl-1H-benzoimidazol-2-yl)-pyrrolidine-1-carboxylic acid benzyl ester] displayed an inhibition at 10 µM of 78.1%.

Consider `O=C(OCc1ccccc1)N1CCC[C@H]1c1nc2ccc(-c3ccco3)cc2[nH]1` [Compound 4030, (S)-2-(6-Furan-2-yl-1H-benzoimidazol-2-yl)-pyrrolidine-1-carboxylic acid benzyl ester], for which 10 µM produced 66.8% inhibition.

In turn, `O=C(OCc1ccccc1)N1CCC[C@H]1c1nc2ccc(-c3ccc4c(c3)OCO4)cc2[nH]1` [Compound 4032, (S)-2-(6-Benzo[1,3]dioxol-5-yl-1H-benzoimidazol-2-yl)-pyrrolidine-1-carboxylic acid benzyl ester] returned an inhibition at 10 µM of 25.8%.

For the compound `O=C(OCc1ccccc1)N1CCC[C@H]1c1nc2ccc(-c3cc([N+](=O)[O-])c4[nH]ccc4c3)cc2[nH]1` [Compound 4033, (S)-2-[6-(7-Nitro-1H-indol-5-yl)-1H-benzoimidazol-2-yl]-pyrrolidine-1-carboxylic acid benzyl ester], at 10 µM the inhibition was 97.5%.

With `NC(=O)Nc1ccc(-c2ccc3nc([C@@H]4CCCN4C(=O)OCc4ccccc4)[nH]c3c2)cc1` [Compound 4034, (S)-2-[6-(4-Ureido-phenyl)-1H-benzoimidazol-2-yl]-pyrrolidine-1-carboxylic acid benzyl ester], 10 µM produced 24.1% inhibition.

Compound `O=C(OCc1ccccc1)N1CCC[C@H]1c1nc2ccc(-c3ccc4[nH]ccc4c3)cc2[nH]1` [Compound 4035, (S)-2-[6-(1H-Indol-5-yl)-1H-benzoimidazol-2-yl]-pyrrolidine-1-carboxylic acid benzyl ester] yielded an inhibition at 10 µM of 99.9%.

`O=C(Nc1cccc(-c2ccc3nc([C@@H]4CCCN4C(=O)OCc4ccccc4)[nH]c3c2)c1)C1CC1` [Compound 4037, (S)-2-{6-[3-(Cyclopropanecarbonyl-amino)-phenyl]-1H-benzoimidazol-2-yl}-pyrrolidine-1-carboxylic acid benzyl ester] had an inhibition at 10 µM of 97.6%.

In the case of `O=C(OCc1ccccc1)N1CCC[C@H]1c1nc2ccc(-c3ccc4[nH]ccc4c3)cc2o1` [Compound 4039, (S)-2-[6-(1H-Indol-5-yl)-benzooxazol-2-yl]-pyrrolidine-1-carboxylic acid benzyl ester], the inhibition at 10 µM stood at 49.6%.

With `O=C(NCc1ccc(-c2cccc(C#C[C@@H]3CCCN3C(=O)OCc3ccccc3)c2)cc1)C1CC1` [Compound 4041, (S)-2-{4′-[(Cyclopropanecarbonyl-amino)-methyl]-biphenyl-3-ylethynyl}-pyrrolidine-1-carboxylic acid benzyl ester], the inhibition at 10 µM was 45.8%.

In turn, `CC(=O)c1cccc(-c2ccc3nc([C@@H]4CCCN4C(=O)OCc4ccccc4)[nH]c3c2)c1` [Compound 4045, (S)-2-[6-(3-Acetyl-phenyl)-1H-benzoimidazol-2-yl]-pyrrolidine-1-carboxylic acid benzyl ester] had an inhibition at 10 µM of 99.8%.

As to `O=C(OCc1ccccc1)N1CCC[C@H]1c1nc2ccc(-c3ccc4[nH]c5ccccc5c4c3)cc2[nH]1` [Compound 4047, (S)-2-[6-(9H-Carbazol-3-yl)-1H-benzoimidazol-2-yl]-pyrrolidine-1-carboxylic acid benzyl ester], the inhibition at 10 µM came out at 98.2%.
